# The source made the active and inactive calls. No cut-off for these calls is given here.
# Assays:
# [1] = molecular target: T1, High affinity nerve growth factor receptor (Homo sapiens, UniProt P04629)
# Target sequence in this assay (P04629 whole entry): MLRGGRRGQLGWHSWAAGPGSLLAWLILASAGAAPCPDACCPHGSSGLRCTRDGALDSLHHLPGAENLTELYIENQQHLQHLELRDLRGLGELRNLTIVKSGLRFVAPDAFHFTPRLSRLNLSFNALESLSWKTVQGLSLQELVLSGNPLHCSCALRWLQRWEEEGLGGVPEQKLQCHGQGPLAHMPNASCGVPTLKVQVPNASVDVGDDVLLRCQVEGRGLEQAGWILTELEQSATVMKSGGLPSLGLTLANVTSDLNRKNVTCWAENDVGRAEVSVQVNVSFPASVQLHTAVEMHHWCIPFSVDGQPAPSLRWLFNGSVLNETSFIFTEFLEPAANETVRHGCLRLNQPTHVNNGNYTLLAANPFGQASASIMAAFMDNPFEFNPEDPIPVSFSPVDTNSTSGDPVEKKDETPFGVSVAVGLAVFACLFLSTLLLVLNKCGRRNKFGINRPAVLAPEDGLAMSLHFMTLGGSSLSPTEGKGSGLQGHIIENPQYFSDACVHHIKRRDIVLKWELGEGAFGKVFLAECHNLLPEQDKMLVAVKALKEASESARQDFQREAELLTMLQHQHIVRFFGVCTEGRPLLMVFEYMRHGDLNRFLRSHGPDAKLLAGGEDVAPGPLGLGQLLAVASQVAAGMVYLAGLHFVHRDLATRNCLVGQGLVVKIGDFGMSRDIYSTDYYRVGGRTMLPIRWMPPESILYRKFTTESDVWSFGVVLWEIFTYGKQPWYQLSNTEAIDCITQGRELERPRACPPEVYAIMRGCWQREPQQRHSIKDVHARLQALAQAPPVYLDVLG
# Description: Inhibition of human TrkA expressed in human U2OS cells assessed as inhibition of NGF-induced maximum response after 1 hr by beta-galactosidase assay
# [2] = molecular target: T1, High affinity nerve growth factor receptor; remark: listed apart in the source
# Target sequence in this assay (P04629 whole entry): as above
# Description: Inhibition of phsophorylated TrkA (unknown origin) assessed as inhibition of fluorescently-labelled substrate phosphorylation by CALIPER enzymatic assay
# [3] = molecular target: T1, High affinity nerve growth factor receptor; remark: listed apart in the source
# Target sequence in this assay (P04629 whole entry): as above
# Description: Binding affinity to His-tagged TrkA (unknown origin) after 1 hr by SPR method
# [4] = molecular target: T1, High affinity nerve growth factor receptor; remark: listed apart in the source
# Target sequence in this assay (P04629 33-796 limits assumed): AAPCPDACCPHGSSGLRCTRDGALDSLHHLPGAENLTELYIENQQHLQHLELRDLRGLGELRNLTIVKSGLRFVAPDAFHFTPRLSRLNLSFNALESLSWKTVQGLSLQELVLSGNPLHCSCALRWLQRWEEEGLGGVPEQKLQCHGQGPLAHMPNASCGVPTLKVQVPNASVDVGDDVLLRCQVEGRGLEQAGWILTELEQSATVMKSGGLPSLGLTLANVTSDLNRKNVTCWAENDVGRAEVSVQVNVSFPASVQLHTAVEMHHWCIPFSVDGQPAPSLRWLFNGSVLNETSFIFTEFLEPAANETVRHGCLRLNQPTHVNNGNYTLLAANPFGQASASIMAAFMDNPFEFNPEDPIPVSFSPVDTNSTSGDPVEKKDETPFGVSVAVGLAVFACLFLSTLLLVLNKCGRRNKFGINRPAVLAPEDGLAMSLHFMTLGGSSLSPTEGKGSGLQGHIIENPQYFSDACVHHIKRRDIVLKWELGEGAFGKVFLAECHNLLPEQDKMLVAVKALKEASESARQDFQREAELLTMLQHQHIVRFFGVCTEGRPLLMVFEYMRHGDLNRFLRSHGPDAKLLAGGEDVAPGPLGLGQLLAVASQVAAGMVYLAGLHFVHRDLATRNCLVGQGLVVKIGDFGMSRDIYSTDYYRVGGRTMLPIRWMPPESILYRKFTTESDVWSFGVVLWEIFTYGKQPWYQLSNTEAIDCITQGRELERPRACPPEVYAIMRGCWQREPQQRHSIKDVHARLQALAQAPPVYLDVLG
# Description: Binding affinity to His-tagged TrkA (unknown origin) assessed as half life after 1 hr by SPR method
# [5] = molecular target: T1, High affinity nerve growth factor receptor; test: Inhibition of purified TrkA cytoplasmic domain (unknown origin) by HTRF assay
# Target sequence in this assay (P04629 whole entry): as the sequence (P04629 whole entry) above
# [6] = tested on: Rattus norvegicus; test: Analgesic activity in po dosed Sprague-Dawley rat Chung spinal nerve ligation model assessed as reversal of mechanical hypersensitivity relative to control; format: functional, organism-based
# [7] = tested on: Plasma; test: Fraction unbound in plasma of Complete-Freunds adjuvant-induced Sprague-Dawley rat pain model at 30 mg/kg, po after 2 hrs; format: ADME, organism-based; design: dose 30 mg/kg, route oral; conditions: in vivo
# [8] = tested on: Plasma; test: Plasma concentration in Sprague-Dawley rat Chung spinal nerve ligation model assessed as reversal of mechanical hypersensitivity at 30 mg/kg, po; format: ADME, organism-based; design: dose 30 mg/kg, route oral; conditions: in vivo
# [9] = Ratio of fraction unbound in plasma of Complete-Freunds adjuvant-induced Sprague-Dawley rat pain model at 10 mg/kg, po after 2 hrs to IC50 for human TrkA expressed in human U2OS cells; format: ADME, organism-based; design: dose 10 mg/kg, route oral; conditions: in vivo
# [10] = Ratio of fraction unbound in plasma of Sprague-Dawley rat Chung spinal nerve ligation model assessed as reversal of mechanical hypersensitivity at 100 mg/kg, po to IC50 for human TrkA expressed in human U2OS cells; format: ADME, organism-based; design: dose 100 mg/kg, route oral; conditions: in vivo
# [11] = Ratio of fraction unbound in plasma of Sprague-Dawley rat Chung spinal nerve ligation model assessed as reversal of mechanical hypersensitivity at 10 mg/kg, po to IC50 for human TrkA expressed in human U2OS cells; format: ADME, organism-based; design: dose 10 mg/kg, route oral; conditions: in vivo
# [12] = tested on: Plasma; test: Fraction unbound in plasma of Sprague-Dawley rat Chung spinal nerve ligation model assessed as reversal of mechanical hypersensitivity at 100 mg/kg, po; format: ADME, organism-based; design: dose 100 mg/kg, route oral; conditions: in vivo
# [13] = Oral bioavailability in rat; format: ADME, organism-based; conditions: in vivo
# [14] = Ratio of fraction unbound in plasma of Complete-Freunds adjuvant-induced Sprague-Dawley rat pain model at 100 mg/kg, po after 2 hrs to IC50 for human TrkA expressed in human U2OS cells; format: ADME, organism-based; design: dose 100 mg/kg, route oral; conditions: in vivo
# [15] = tested on: Plasma; test: Plasma concentration in Sprague-Dawley rat Chung spinal nerve ligation model assessed as reversal of mechanical hypersensitivity at 100 mg/kg, po; format: ADME, organism-based; design: dose 100 mg/kg, route oral; conditions: in vivo
# [16] = Plasma concentration in Complete-Freunds adjuvant-induced Sprague-Dawley rat pain model at 30 mg/kg, po after 2 hrs; format: ADME, organism-based; design: dose 30 mg/kg, route oral
# [17] = tested on: Plasma; test: Fraction unbound in plasma of Sprague-Dawley rat Chung spinal nerve ligation model assessed as reversal of mechanical hypersensitivity at 10 mg/kg, po; format: ADME, organism-based; design: dose 10 mg/kg, route oral; conditions: in vivo
# [18] = tested on: Plasma; test: Fraction unbound in plasma of Sprague-Dawley rat Chung spinal nerve ligation model assessed as reversal of mechanical hypersensitivity at 30 mg/kg, po; format: ADME, organism-based; design: dose 30 mg/kg, route oral; conditions: in vivo
# [19] = Ratio of fraction unbound in plasma of Sprague-Dawley rat Chung spinal nerve ligation model assessed as reversal of mechanical hypersensitivity at 30 mg/kg, po to IC50 for human TrkA expressed in human U2OS cells; format: ADME, organism-based; design: dose 30 mg/kg, route oral; conditions: in vivo
# [20] = tested on: Rattus norvegicus; test: Antiinflammatory activity in Complete-Freunds adjuvant-induced Sprague-Dawley rat pain model assessed as reversal of mechanical hypersensitivity at 30 mg/kg, po bid for 7 days; format: functional, organism-based; design: dose 30 mg/kg
# [21] = tested on: Plasma; test: Fraction unbound in plasma of Complete-Freunds adjuvant-induced Sprague-Dawley rat pain model at 10 mg/kg, po after 2 hrs; format: ADME, organism-based; design: dose 10 mg/kg, route oral; conditions: in vivo
# [22] = tested on: Plasma; test: Fraction unbound in plasma of Complete-Freunds adjuvant-induced Sprague-Dawley rat pain model at 100 mg/kg, po after 2 hrs; format: ADME, organism-based; design: dose 100 mg/kg, route oral; conditions: in vivo
# [23] = Plasma protein binding in rat; format: ADME, cell-free; conditions: read-out: PPB (converted)
# [24] = Half life in rat; format: ADME, organism-based; conditions: in vivo
# [25] = tested on: Rattus norvegicus; test: Analgesic activity in Sprague-Dawley rat Chung spinal nerve ligation model assessed as reversal of mechanical hypersensitivity at 30 mg/kg, po relative to control; format: functional
# [26] = Clearance in rat; format: ADME, organism-based; conditions: in vivo
# [27] = Ratio of fraction unbound in plasma of Complete-Freunds adjuvant-induced Sprague-Dawley rat pain model at 30 mg/kg, po after 2 hrs to IC50 for human TrkA expressed in human U2OS cells; format: ADME, organism-based; design: dose 30 mg/kg, route oral; conditions: in vivo
# [28] = Plasma concentration in Complete-Freunds adjuvant-induced Sprague-Dawley rat pain model at 100 mg/kg, po after 2 hrs; format: ADME, organism-based; design: dose 100 mg/kg, route oral
# [29] = tested on: Rattus norvegicus; test: Antiinflammatory activity in Complete-Freunds adjuvant-induced Sprague-Dawley rat pain model assessed as reversal of mechanical hypersensitivity at 100 mg/kg, po bid for 7 days; format: functional, organism-based; design: dose 100 mg/kg
# [30] = tested on: Plasma; test: Plasma concentration in Sprague-Dawley rat Chung spinal nerve ligation model assessed as reversal of mechanical hypersensitivity at 10 mg/kg, po; format: ADME, organism-based; design: dose 10 mg/kg, route oral; conditions: in vivo
# [31] = Plasma concentration in Complete-Freunds adjuvant-induced Sprague-Dawley rat pain model at 10 mg/kg, po after 2 hrs; format: ADME, organism-based; design: dose 10 mg/kg, route oral
smiles,measurement,setting,value
O=C(O)c1cc2cc(-c3cc[nH]n3)ccc2n1CCOc1ccc(OC(F)(F)F)cc1,IC50,[1],29 nM
same,IC50,[2],51 nM
CC(C)N(Cc1cccc(-c2nccs2)c1)C(=O)Nc1ccc(OC(F)(F)F)cc1,IC50,[1],56 nM
same,IC50,[2],132 nM
same,Kd,[3],63 nM
same,T1/2,[4],0.1 h
CN1CCN(c2ccc(Nc3ncnc4ccc(NCc5cccc(Cl)c5)nc34)cc2)CC1,IC50,[5],11 nM
same,IC50,[2],1690 nM
same,Kd,[3],63 nM
CC(C)N(Cc1c[nH]c2ncccc12)C(=O)Nc1ccc(OC(F)(F)F)cc1,IC50,[1],3 nM
same,IC50,[2],11 nM
O=C(O)c1cc2cnccc2n1CCOc1ccc(OC(F)(F)F)cc1,IC50,[1],15800 nM
same,IC50,[2],12300 nM
c1cncc(CNc2ccc3ncnc(Nc4ccc(N5CCOCC5)cc4)c3n2)c1,IC50,[5],997 nM
CCOc1cccc(-c2nccc3c2cc(C(=O)O)n3CCOc2ccc(OC(F)(F)F)cc2)c1,IC50,[1],59 nM
same,IC50,[2],348 nM
Cc1cn2cc(CNc3ncnc4ccc(N5CCC[C@@H]5c5cc(F)ccc5F)nc34)nc2s1,IC50,[5],1.5 nM
same,IC50,[2],13 nM
CC(C)C[C@H](CN)CC(=O)O,inhibition,[6],Active
CCOc1cccc(-c2nccc3c2cc(C(=O)O)n3CCOc2ccccc2)c1,IC50,[1],109 nM
same,IC50,[2],2070 nM
N#Cc1ccc2c(c1)cc(C(=O)O)n2CCOc1ccc(OC(F)(F)F)cc1,IC50,[1],150 nM
same,IC50,[2],118 nM
Cc1cn(-c2ccc(-c3cn(CC(=O)Nc4cc(C5CC5)nn4-c4ccccc4)nn3)cc2)cn1,IC50,[5],60 nM
same,IC50,[1],9 nM
O=C(NCc1cccc(-c2nccs2)c1)Nc1ccc(OC(F)(F)F)cc1,IC50,[2],> 100000 nM
CCOc1cccc(-c2nccc3c2cc(C(=O)O)n3CCOc2ccc(Cl)cc2)c1,IC50,[1],200 nM
same,IC50,[2],653 nM
same,Kd,[3],3.5 nM
same,T1/2,[4],2.13 h
CC(C)(C)c1cc(NC(=O)Cn2cc(-c3ccc(-n4ccnc4)nc3)nn2)n(-c2cccnc2)n1,Cp(f),[7],20 nM
same,concentration,[8],6.7 µM
same,Ratio,[9],1
same,Ratio,[10],23
same,Ratio,[11],1
same,Cp(f),[12],115 nM
same,bioavailability,[13],30%
same,Ratio,[14],16
same,concentration,[15],23 µM
same,concentration at 2 h,[16],4 µM
same,Cp(f),[17],5 nM
same,IC50,[5],9 nM
same,Cp(f),[18],34 nM
same,Ratio,[19],6
same,inhibition,[20],Active
same,Cp(f),[21],5 nM
same,IC50,[1],7 nM
same,Cp(f),[22],80 nM
same,fraction unbound,[23],0.005
same,half-life,[24],156 min
same,inhibition in vivo at 30 mg/kg,[25],50%
same,clearance,[26],16 mL/min/kg
same,Ratio,[27],4
same,concentration at 2 h,[28],16 µM
same,inhibition,[29],Active
same,Kd,[3],0.94 nM
same,T1/2,[4],1.13 h
same,concentration,[30],1000 nM
same,concentration at 2 h,[31],1000 nM
COc1ccc2cc([C@H](C)C(=O)O)ccc2c1,inhibition,[20],Active

# — ChEMBL document CHEMBL3297676, “Maximizing diversity from a kinase screen: identification of novel and selective pan-Trk inhibitors for chronic pain” (J Med Chem, 2014)
